# Measurements: patent US5348968A, “Indole, indazole and benzisoxazole compounds” (Adir et Compagnie, priority 1993, dated 1994)
# Structures can show the parent of a compound that is named as a salt.
# Legend:
# 5-HT1 receptor [1] = molecular target: T1, 5-HT1 receptor (Canis lupus familiaris, UniProt P79250); test: Contraction of the vena saphena isolated from dogs; set-up: species or system dog; conditions: % of maximum effect induced by KCl, after phenoxybenzamine, cumulative doses 10^-9 to 10^-4 M, read-out: 50% effective concentration (EC50)
# T1 construct: The venae saphenae are rapidly removed and cut into rings; from tissue; host or cells: dog saphenous vein rings
# Protocol: (§1) Contraction of the vena saphena
# (§2) Experiments are carried out on venae saphenae of dogs (10-25kg) or rabbits (2-3 kg) anesthetized with pentobarbital (30 mg/kg i.v.). The venae saphenae are rapidly removed and cut into rings. These rings are mounted between two hooks in tanks thermostatically controlled at 37° C. containing physiological solution (composition in mM: NaCl118.3; KCl 4.7; CaCl2 2.5; MgSO4 1.2; KH2 PO4 1.2; NaHCO3 25.0; Ca-EDTA 0.026 and glucose 11.1). A mixture of 95% O2 /5% CO2 is bubbled through the physiological solution. The lower hook constitutes the fixed point whereas the upper hook is connected to an isometric force sensor. The tissues are put under a base tension of 1.5 grams (dogs) and 1 gram (rabbits). The pharmacological substances studied are prepared immediately before use; they are dissolved in water or in dimethyl sulfoxide.
# (§3) After mounting, the preparations are left standing for 60 minutes, rinsings being carried out every 30 minutes. The organ is then brought into contact with phenoxybenzamine (5×10^-8 M) for 20 minutes. This agent is removed by several successive washings over 45 minutes. After readjusting the base tension, a contraction is caused by KCl (100 mM).
# 5-HT1 receptor [2] = test: Contraction of the vena saphena isolated from rabbits; set-up: species or system rabbit; conditions: % of maximum effect induced by KCl, after phenoxybenzamine, cumulative doses 10^-9 to 10^-4 M, read-out: 50% effective concentration (EC50)
# Protocol: as §1, §2, §3
# T1 sequence (P79250 whole entry): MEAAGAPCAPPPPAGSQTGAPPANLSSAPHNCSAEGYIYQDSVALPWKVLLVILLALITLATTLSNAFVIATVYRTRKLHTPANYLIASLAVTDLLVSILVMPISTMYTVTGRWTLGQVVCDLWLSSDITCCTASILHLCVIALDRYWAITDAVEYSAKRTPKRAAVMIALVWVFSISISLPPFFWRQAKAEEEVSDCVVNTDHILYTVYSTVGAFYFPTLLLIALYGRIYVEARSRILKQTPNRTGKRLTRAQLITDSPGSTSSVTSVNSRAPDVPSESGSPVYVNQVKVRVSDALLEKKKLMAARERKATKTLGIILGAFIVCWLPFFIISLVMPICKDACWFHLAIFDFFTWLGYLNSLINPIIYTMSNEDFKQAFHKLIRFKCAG
smiles,measurement,setting,value
"CCCN1CCC(Cc2c[nH]c3ccc(C(N)=O)cc23)C1 (centres unmarked) [Example 17, 3-[(1-Propylpyrrolidin-3-yl)methyl]-5-aminocarbonylindole, oxalate]",EC50,5-HT1 receptor [1],340 nM
same,EC50,5-HT1 receptor [2],410 nM
